Reference: ChEMBL document CHEMBL4196140, “Spiro-Phthalides and Isocoumarins Isolated from the Marine-Sponge-Derived Fungus Setosphaeria sp. SCSIO41009” (J Nat Prod, 2018)
Active and inactive are the calls of the source. No cut-off for these calls is given here.

Each compound was assayed on Influenza A virus (assay: Antiviral activity against Influenza A virus (A/Puerto Rico/8/34(H1N1)) harboring H274Y mutant infected in MDCK cells assessed as inhibition of virus-induced cytopathic effect after 48 hrs by MTT assay). Details: A/Puerto Rico/8/1934(H1N1).
Assay type: functional, organism-based

Compound	inhibition
CCC[C@H]1C[C@H](O)[C@@]2(OC(=O)c3c2cc(OC)c(OC)c3O)O1	inactive
COc1cc2c(c(O)c1OC)C(=O)O[C@@H]1C[C@H](CCC(=O)O)O[C@H]21	inactive
CCC[C@@H]1C[C@H]2OC(=O)c3c(cc(OC)c(OC)c3O)[C@@H]2O1	inactive
CC[C@@H](O)[C@H]1C[C@H]2OC(=O)c3c(cc(OC)c(OC)c3O)[C@H]2O1	inactive
COC(=O)CCCc1c(OC)cc(=O)oc1C	inactive
CCCC(=O)CC[C@@H]1OC(=O)c2c1cc(OC)c(OC)c2O	inactive
COc1cc(=O)oc(C)c1CCC(C)O (configuration not stated)	inactive
CCCCOCc1c(O)cc(C)c2c1Oc1c(C)cc(O)c(C)c1OC2=O	inactive
COc1cc2c(c(O)c1OC)C(=O)O[C@@H]1C[C@H](C[C@@H](C)O)O[C@H]21	inactive
COc1cc2c(c(O)c1OC)C(=O)O[C@@H]1C[C@H](CCCO)O[C@H]21	inactive
CCCCC1=C(OC)C(=O)OC1(C)O (racemic)	inactive
CCC[C@H]1C[C@H](O)[C@]2(OC(=O)c3c2cc(OC)c(OC)c3O)O1	inactive
CCC[C@@H]1C[C@H]2OC(=O)c3c(cc(O)c(OC)c3O)[C@@H]2O1	inactive
CCC(O)Cc1c(OC)cc(=O)oc1C (configuration not stated)	inactive
CCC[C@H]1C[C@H]2OC(=O)c3c(cc(OC)c(O)c3O)[C@H]2O1	inactive
COCc1c(O)cc(C)c2c1Oc1c(C)cc(O)c(C)c1OC2=O	inactive
CCCC(=O)CC[C@H]1OC(=O)c2c1cc(O)c(OC)c2O	inactive
CC[C@H](O)[C@H]1C[C@H]2OC(=O)c3c(cc(OC)c(OC)c3O)[C@H]2O1	inactive
COc1cc(=O)oc(C)c1CCCC(=O)O	inactive
CCCCc1c(OC)cc(=O)oc1CO	inactive
CCCCc1c(OC)cc(=O)oc1C	inactive
CCC[C@H]1C[C@H]2OC(=O)c3c(cc(OC)c(OC)c3O)[C@@H]2O1	inactive
